According to the supplement of paper PMC10307832:

Key:
Experiment in all cases: relative viability (nuclei count vs DMSO), 5 days (fraction); higher = more cells survive
[1] = compound: CC1CC(=O)N(C2=CN=C(N=C2N1C3CCCC3)NC4=C(C=C(C=C4)C(=O)NC5CCN(CC5)C)OC)C [NPK76-II-72-1] + CC(=O)Nc1cccc(-n2c(=O)n(C3CC3)c(=O)c3c(Nc4ccc(I)cc4F)n(C)c(=O)c(C)c32)c1 [Trametinib] (partner 0.02 µM)
Method in brief: (§1)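 Each reported value is a median over duplicate plates. It expresses relative viability: treated-well nuclei count divided by vehicle-well nuclei count. Lung cancer cell lines in 1536-well plates were dosed by pin tool a day after seeding, alone with one drug or with a fixed anchor-drug dose plus five library-drug doses (not always all listed) in √10 steps, and nuclei were counted after 5 days.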

[2] = compound: CC1CC(=O)N(C2=CN=C(N=C2N1C3CCCC3)NC4=C(C=C(C=C4)C(=O)NC5CCN(CC5)C)OC)C [NPK76-II-72-1] + CCNC(=O)c1noc(-c2cc(C(C)C)c(O)cc2O)c1-c1ccc(CN2CCOCC2)cc1 [Luminespib] (partner 0.01 µM)
Method in brief: as §1

BI-2536 + Pictilisib = compound: CC[C@@H]1C(=O)N(C)c2cnc(Nc3ccc(C(=O)NC4CCN(C)CC4)cc3OC)nc2N1C1CCCC1 [BI-2536] + CS(=O)(=O)N1CCN(Cc2cc3nc(-c4cccc5[nH]ncc45)nc(N4CCOCC4)c3s2)CC1 [Pictilisib] (partner 1 µM)
Method in brief: as §1

BI-2536 + Olaparib = compound: CC[C@@H]1C(=O)N(C)c2cnc(Nc3ccc(C(=O)NC4CCN(C)CC4)cc3OC)nc2N1C1CCCC1 [BI-2536] + O=C(c1cc(Cc2n[nH]c(=O)c3ccccc23)ccc1F)N1CCN(C(=O)C2CC2)CC1 [Olaparib] (partner 8 µM)
Method in brief: as §1

Cell Line	relative viability ([1]; first compound 0.01 µM)	relative viability ([1]; first compound 0.03162 µM)	relative viability ([1]; first compound 0.1 µM)	relative viability ([1]; first compound 0.3162 µM)	relative viability ([1]; first compound 1 µM)	relative viability ([2]; first compound 0.01 µM)	relative viability ([2]; first compound 0.03162 µM)	relative viability ([2]; first compound 0.1 µM)	relative viability ([2]; first compound 0.3162 µM)	relative viability ([2]; first compound 1 µM)	relative viability (BI-2536 + Pictilisib; first compound 0.01 µM)	relative viability (BI-2536 + Pictilisib; first compound 0.03162 µM)	relative viability (BI-2536 + Pictilisib; first compound 0.1 µM)	relative viability (BI-2536 + Pictilisib; first compound 0.3162 µM)	relative viability (BI-2536 + Pictilisib; first compound 1 µM)	relative viability (BI-2536 + Olaparib; first compound 0.01 µM)	relative viability (BI-2536 + Olaparib; first compound 0.03162 µM)	relative viability (BI-2536 + Olaparib; first compound 0.1 µM)	relative viability (BI-2536 + Olaparib; first compound 0.3162 µM)	relative viability (BI-2536 + Olaparib; first compound 1 µM)
NCI-H23	0.361	0.424	0.271	0.342	0.38	0.237	0.209	0.228	0.228	0.201	0.424	0.272	0.169	0.139	0.14	0.307	0.318	0.212	0.117	0.104
NCI-H322M	0.531	0.492	0.472	0.483	0.557	0.818	0.826	0.943	0.783	1.01	0.303	0.478	0.559	0.519	0.271	0.74	0.692	0.637	0.442	0.393
NCI-H358	0.14	0.145	0.204		0.151	0.21	0.431	0.521		0.839	0.338	0.235	0.18	0.14	0.15	0.559	0.247	0.0974	0.0882	0.0802
NCI-H441	0.396	0.507	0.429	0.497	0.54	0.35	0.348	0.299	0.425	0.536	0.464	0.211	0.138	0.17	0.117	0.522	0.354	0.171	0.148	0.148
NCI-H460	0.271	0.14	0.141	0.123	0.174	0.0406	0.0404	0.0346	0.0272	0.0329	0.276	0.375	0.33	0.0337	0.0494	0.488	0.421	0.268	0.0394	0.0262
NCI-H520	0.646	0.687	0.676	0.688	0.769	0.206	0.24	0.285	0.181	0.245	0.287	0.232	0.268	0.172	0.162	0.284	0.217	0.228	0.162	0.168
NCI-H596	0.764	0.787	0.776	0.82	0.803	0.871	1.18	0.975	1.03	1.12	0.376	0.293	0.198	0.215	0.205	0.731	0.731	0.59	0.423	0.295
NCI-H647	0.443	0.436	0.418	0.527	0.54	0.189	0.188	0.143	0.202	0.23	0.396	0.376	0.129	0.0762	0.0954	0.481	0.281	0.107	0.0584	0.0662
NCI-H650	1.14	0.996	0.957	0.997	1.01	0.72	0.843	0.718	0.615	0.891	0.849	0.584	0.245	0.206	0.15	0.407	0.28	0.237	0.146	0.105
NCI-H661	0.622	0.685	0.589	0.526	0.611	0.964	0.943	0.892	0.906	0.933	0.411	0.37	0.255	0.247	0.217	0.763	0.468	0.354	0.335	0.34
NCI-H727	0.352	0.392	0.341	0.394	0.395	0.29	0.31	0.288	0.246	0.412	0.391	0.338	0.433	0.265	0.19	0.589	0.765	0.643	0.461	0.576
NCI-H838	0.485	0.575	0.513	0.523	0.578	0.288	0.344	0.299	0.273	0.274	0.44	0.393	0.203	0.118	0.122	0.731	0.638	0.368	0.0986	0.0726
NCI-H1355	0.468	0.452	0.421	0.395	0.44	0.678	0.716	0.756	0.67	0.763	0.477	0.43	0.227	0.161	0.184	0.728	0.598	0.536	0.169	0.17
NCI-H1395	1.09	1.01	1	1.07	1.06	0.774	0.76	0.678	0.709	0.863	0.622	0.524	0.747	0.339	0.357	0.4	0.396	0.329	0.364	0.355
NCI-H1437	0.492	0.533	0.557	0.53	0.616	1.03	1.13	1.09	1.03	1.08	0.428	0.427	0.397	0.098	0.099	0.6	0.494	0.339	0.23	0.247
NCI-H1650	0.523	0.591	0.59	0.491	0.585	0.185	0.198	0.207	0.194	0.194	0.567	0.366	0.146	0.162	0.0901	0.866	0.689	0.609	0.166	0.143

Cell Line	relative viability ([1]; first compound 0.01 µM)	relative viability ([1]; first compound 0.03162 µM)	relative viability ([1]; first compound 0.1 µM)	relative viability ([1]; first compound 0.3162 µM)	relative viability ([1]; first compound 1 µM)	relative viability ([2]; first compound 0.01 µM)	relative viability ([2]; first compound 0.03162 µM)	relative viability ([2]; first compound 0.1 µM)	relative viability ([2]; first compound 0.3162 µM)	relative viability ([2]; first compound 1 µM)	relative viability (BI-2536 + Pictilisib; first compound 0.01 µM)	relative viability (BI-2536 + Pictilisib; first compound 0.03162 µM)	relative viability (BI-2536 + Pictilisib; first compound 0.1 µM)	relative viability (BI-2536 + Pictilisib; first compound 0.3162 µM)	relative viability (BI-2536 + Pictilisib; first compound 1 µM)	relative viability (BI-2536 + Olaparib; first compound 0.01 µM)	relative viability (BI-2536 + Olaparib; first compound 0.03162 µM)	relative viability (BI-2536 + Olaparib; first compound 0.1 µM)	relative viability (BI-2536 + Olaparib; first compound 0.3162 µM)	relative viability (BI-2536 + Olaparib; first compound 1 µM)
NCI-H1651	0.83	0.82	0.839	0.794	0.816	0.925	0.995	0.698	0.743	0.852	0.524	0.372	0.488	0.0623	0.055	0.185	0.173	0.157	0.142	0.109
NCI-H1666	0.851	0.859	0.847	0.732	1.05	0.977	1.03	0.987	0.924	1.06	0.558	0.393	0.2	0.221	0.2	0.76	0.704	0.671	0.545	0.583
NCI-H1734	0.621	0.645	0.587	0.638	0.643	0.167	0.178	0.189	0.17	0.186	0.402	0.387	0.347	0.17	0.216	0.605	0.618	0.254	0.176	0.153
NCI-H1755	0.756	0.752	0.75	0.752	0.799	0.579	0.563	0.264	0.371	0.503	0.424	0.399	0.157	0.151	0.175	0.945	0.816	0.707	0.373	0.316
NCI-H1792		0.469	0.478	0.378	0.506	0.404	0.504	0.469	0.5	0.556	0.307	0.354	0.207	0.111	0.0623	0.543	0.374	0.316	0.0436	0.0344
NCI-H1793		0.389	0.408	0.511	0.401	0.144	0.166	0.203	0.176	0.201	0.294	0.214	0.191	0.174	0.159	0.674	0.767	0.203	0.152	0.157
NCI-H1915	0.286	0.307	0.294	0.313	0.295	0.762	0.798	0.75	0.7	0.845	0.866	0.899	0.264	0.074	0.0908	0.218	0.205	0.163	0.0887	0.0963
NCI-H1944	0.372	0.413	0.423	0.351	0.408	0.743	0.781	0.722	0.723	0.807	0.339	0.336	0.295	0.157	0.17	0.385	0.389	0.297	0.164	0.147
NCI-H1975	0.348	0.329	0.303	0.323	0.401	0.23	0.196	0.183	0.243	0.294	0.27	0.284	0.24	0.117	0.135	0.776	0.71	0.544	0.161	0.169
NCI-H1993	0.551	0.549	0.624	0.57	0.482	0.848	0.87	0.925	0.764	0.818	0.981	0.681	0.638	0.664	0.631	1.04	0.861	0.749	0.471	0.486
NCI-H2009	0.292	0.245	0.286	0.335	0.265	0.976	1.1	1.01	1.07	1.04	0.779	0.358	0.179	0.137	0.103	0.665	0.54	0.45	0.114	0.126
NCI-H2023	0.584	0.645	0.677	0.556	0.512	0.766	1.03	0.871	0.594	0.888	0.218	0.211	0.091	0.0927	0.094	0.426	0.338	0.13	0.0876	0.0937
NCI-H2085	0.505	0.522	0.532	0.528	0.541	0.442	0.437	0.391	0.381	0.437	0.395	0.504	0.371	0.183	0.224	0.786	0.697	0.544	0.341	0.381
NCI-H2087	0.219	0.203	0.201	0.179	0.244	0.154	0.16	0.136	0.158	0.185	1	0.872	0.381	0.192	0.143	0.614	0.673	0.471	0.0859	0.102
NCI-H2126	0.541	0.567	0.563	0.537	0.598	0.88	0.907	0.933	0.814	0.901	0.509	0.48	0.27	0.247	0.253	0.968	0.891	0.77	0.322	0.241
